Data: publication PMC8070745, “FEN1 Blockade for Platinum Chemo-Sensitization and Synthetic Lethality in Epithelial Ovarian Cancers” (Cancers, 2021)

Experiments:
[1] = system: BRCA2_KD HeLa silenciX cells; assay: Clonogenic assay, BRCA2_KD HeLa; type: cell-based; conditions: vs control HeLa cells
Description: (§1) Clonogenic assay: In the clonogenic assay (colony formation assays), 32 cells/cm2 were seeded in 6-well plates and left at 37°C in a 5% CO2 atmosphere. Cisplatin (5µM) and/or FEN1i (10µM) and/or Importazole (5 µM, Selleckem, S8446 ) were added at the indicated concentrations and the plates were left at 37 °C in a 5% CO 2 atmosphere for 14 days. Later, the plates were washed with PBS, fixed and stained with a crystal violet, acetic acid and methanol solution and colonies were counted.
(§2) Nuclear and cytoplasmic extract: Cells were harvest by trypsinization, washed with PBS and centrifuged at 1000×g for 5min. […] Protein level were then quantified prior to use in western blots.
(§3) BCA protein quantification: Protein quantification was done using the Pierce BCA kit assay by Thermo Fisher Scientific. […] The plate was incubated at 37°C during 30 min in the dark and the absorbance was measured by FLUOstar OPTIMA, UK/ Infinite® F50 (UK) microplate reader at 590 nm. […]
(§4) Western Blot Analysis: Cells were harvested and lysed in RIPA buffer (R0278, Sigma) with the addition of protease cocktail inhibitor (P8348, Sigma), phosphatase inhibitor cocktail 2 (P5726, Sigma) and phosphatase inhibitor cocktail 3 (P0044, Sigma) and stored at - 20°C. Protein was quantified using BCA Protein Assay kit (23225, Thermo Fisher). […]

POLβ KO A2780cis cells = assay: Annexin V apoptosis detection, POLβ KO A2780cis; type: cell-based, human; conditions: FEN1i-treated
Description: Apoptosis detection: Annexin V detection kit (556547, BD Biosciences) was used to quantify apoptotic cells. Briefly, cells were trypsinized, washed with PBS and the cellular pellet was re-suspended in Anexin Binding Buffer (1×). Following, FITC Anexin V and Propidium Iodide were added to the cells. After incubation, Anexin binding Buffer (1×) was added to each tube. All the samples were analysed on a Beckman-Coulter FC500 flow cytometer. The percentage of apoptotic cells was determined (late apoptotic = FITC-Annexin V positive, PI positive early apoptotic = FITC-Annexin V positive, PI negative; live cells = FITC-Annexin V negative, PI negative) and compared for untreated and treated samples. Graphical representation and statistical analysis was performed in GraphPad Prism 7 (GraphPad, La Jolla, USA).
3D Spheroid assays: A2780_control and A2780 FEN1_ KO as well as A2780cis_control and A2780cis FEN1_ KO cells were seeded at 4500 cells/cm2 density in ultra-low attachment 6-well plates (174932, Thermo Fisher Scientific) and cultured in 3D Tumorsphere Medium (C28070, PromoCell, UK) at 37°C in a 5% CO2 atmosphere. Cells were keep in culture for 7-10 days, toping up with fresh medium every two days until spheroids structures were formed.

[2] = molecular target: T1, Recombinant human FEN1 protein (Homo sapiens, UniProt P39748); assay: radio-labeled FEN1 cleavage assay; type: biochemical; conditions: 3 nM FEN1, 37 °C, 10 min
T1 construct: made in house
T1 sequence (P39748 whole entry): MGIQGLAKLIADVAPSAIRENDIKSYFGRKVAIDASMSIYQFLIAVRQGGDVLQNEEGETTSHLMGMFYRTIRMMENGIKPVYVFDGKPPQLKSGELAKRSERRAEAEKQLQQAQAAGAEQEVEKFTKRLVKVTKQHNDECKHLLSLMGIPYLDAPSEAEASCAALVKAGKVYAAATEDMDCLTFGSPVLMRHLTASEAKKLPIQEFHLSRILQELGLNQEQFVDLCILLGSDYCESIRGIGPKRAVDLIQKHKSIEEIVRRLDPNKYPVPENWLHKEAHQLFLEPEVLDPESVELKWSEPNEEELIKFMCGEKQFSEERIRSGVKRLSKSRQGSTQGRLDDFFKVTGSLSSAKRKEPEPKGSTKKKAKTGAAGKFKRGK

[3] = system: FEN1 nuclear level in A2780cis cells; assay: Nuclear extract western blot for FEN1, A2780cis; type: cell-based, human; conditions: 5 µM cisplatin, 24 h
Description: as §1, §2, §3, §4

A2780 cells = assay: Clonogenic assay, A2780; type: cell-based, human
Description: as §1, with “counted. […]” for “counted.”

[4] = system: FEN1 nuclear level in A2780 cells; assay: Nuclear extract western blot for FEN1, A2780; type: cell-based, human; conditions: 5 µM cisplatin, 24 h
Description: as §1, §2, §3, §4

Row | Structure (SMILES) | sensitivity to FEN1 inhibitor [1] | apoptosis (POLβ KO A2780cis cells) | FEN1 inhibition in cleavage assay [2] | nuclear level of FEN1 after cisplatin [3] | cisplatin sensitivity (A2780 cells) | nuclear level of FEN1 after cisplatin [4]
1 | Cc1csc2c1c(=O)n(O)c(=O)n2-c1ccccc1 [PTPD, 3-hydroxy-5-methyl-1-phenylthieno [2,3 d]pyrimidine-2,4(1H,3H)-dione] | sensitive to FEN1i compared to control HeLa cells | apoptosis | confirmed FEN1 inhibition | – | – | –
2 | N.N.[Cl][Pt][Cl] [cisplatin] | – | – | – | significantly increased | cisplatin-sensitive | significantly decreased
